Laboratory results taken from patent US20020155164A1, “System and method for the prevention of infections in human patients using nitric oxide” (priority 2001, published 2002).

Test system: bacteria
Assay: Tests performed in vitro on bacteria
Type: cell-based
Conditions: many types of bacteria
Excerpt: The inventors of the instant invention have investigated NO for its use as a sterilizing agent in the prevention and treatment of infections. […] PCT International Application No. PCT/CA99/01123, a published Jun. 2, 2000, discloses a method and an apparatus for the treatment of human respiratory infections by NO inhalation.

[N]=O [NO, nitric oxide]
effect on growth / killing of bacteria: interfere with the growth of and/or kill many types of bacteria
